This assay concerns the target Acyl-protein thioesterase 1 (Homo sapiens) + Acyl-protein thioesterase 2 (Homo sapiens) (UniProt O75608+O95372). Put plainly: covalent versus reversible binding mode of APT1/APT2 inhibitors – cell lysate, HeLa lysate, fluorescence gel ABPP, mechanism study for LYPLA1/LYPLA2 inhibitor project, late-stage follow-up (AID 743133). The note with it: HeLa lysate gel-based ABPP, FP-Rh; for recovery after gel filtration: stronger effect = lower value; for inhibition: gel filtration, stronger effect = higher value. (Size exclusion chromatography separates by hydrodynamic size, large species first.)

Sequence of Acyl-protein thioesterase 1 (Homo sapiens) + Acyl-protein thioesterase 2 (Homo sapiens) (O75608 whole entry, looked up, one chain of several): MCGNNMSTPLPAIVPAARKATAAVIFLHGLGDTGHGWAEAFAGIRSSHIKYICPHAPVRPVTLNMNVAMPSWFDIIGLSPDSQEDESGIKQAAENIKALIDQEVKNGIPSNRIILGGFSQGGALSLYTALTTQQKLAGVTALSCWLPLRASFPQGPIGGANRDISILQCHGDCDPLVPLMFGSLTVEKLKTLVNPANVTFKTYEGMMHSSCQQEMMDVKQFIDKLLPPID

A word on the inhibition: it is the share of the control response that was lost under treatment. For `O=C(ON1C(=O)C2CN(C(=O)N3CCOCC3)CCN2C1=O)N1CCC(CCc2ccc(Cl)cc2)CC1` (stereo unspecified), the recovery after gel filtration reads like this: (at 0.2 µM) 0%; (at 1 µM) 0%. For the same molecule, the inhibition (at 0.2 µM, post-gel filtration inhibition) stood at 85%; the inhibition (at 0.2 µM, pre-gel filtration inhibition) was 85%; the inhibition (at 1 µM, post-gel filtration inhibition) is 95%; the inhibition (at 1 µM, pre-gel filtration inhibition) turned out to be 95%.

These data come from PubChem BioAssay AID743133 (The Scripps Research Institute Molecular Screening Center, 2013).
